In patent US20230277533A1, “THERAPEUTIC COMBINATIONS COMPRISING UBIQUITIN-SPECIFIC-PROCESSING PROTEASE 1 (USP1) INHIBITORS AND POLY (ADP-RIBOSE) POLYMERASE (PARP) INHIBITORS” (KSQ Therapeutics, Inc., priority 2020, published 2023):
Where two headings read alike, the source gives them in different places.

What was measured:
Experiment in all cases: Colony formation (CFU) assay
Format in all cases: cell-based
[1] = tested on: SNU119; conditions: SNU119, ovary
In short: (§1)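 Cells were plated in six-well plates at a density giving well-separated colonies after about 14 days, with medium containing DMSO, USP1 inhibitor, niraparib or olaparib refreshed on day 8. Colonies were stained with 0.1% crystal violet, the dye extracted into 10% acetic acid and read at 565 nm.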

[2] = tested on: OVA2BUR; conditions: ovary
In short: as §1

[3] = tested on: MG63; conditions: Homo sapiens, MG-63; MG63, bone
In short: as §1

[4] = tested on: JIMT1; conditions: Homo sapiens, JIMT-1; JIMT1, breast
In short: as §1

[5] = tested on: BICR56; conditions: BICR56, head and neck
In short: as §1

[6] = tested on: SKOV3; conditions: Homo sapiens, SK-OV-3; SKOV3, ovary
In short: as §1

[7] = tested on: JHOS2; conditions: for IC50: JHOS2, ovary; for activity as single agents: JHOS2, up to 300 nM
In short: as §1

[8] = tested on: HUO3N1; conditions: HUO3N1, bone
In short: as §1

[9] = tested on: NCIH1651; conditions: Homo sapiens, NCI-H1651; NCIH1651, lung
In short: as §1

[10] = tested on: KP3
In short: as §1

[11] = tested on: HS739T; conditions: breast
In short: as §1

[12] = tested on: BICR18; conditions: BICR18, head and neck
In short: as §1

[13] = tested on: KMBC2; conditions: KMBC2, bladder
In short: as §1

[14] = tested on: HEC151; conditions: HEC151, endometrial
In short: as §1

[15] = tested on: KM12; conditions: Homo sapiens; KM12, colon
In short: as §1

[16] = tested on: HS695T; conditions: Homo sapiens, Hs 695T, skin
In short: as §1

[17] = tested on: HCC1569; conditions: Homo sapiens; HCC1569, breast
In short: as §1

[18] = tested on: CAOV3; conditions: Homo sapiens, Caov-3; CAOV3, ovary
In short: as §1

[19] = tested on: HCT15; conditions: Homo sapiens, HCT-15; HCT15, colon
In short: as §1

[20] = tested on: SCC25; conditions: Homo sapiens, SCC-25; SCC25, head and neck
In short: as §1

[21] = tested on: NCIH1299; conditions: Homo sapiens, NCI-H1299; NCIH1299, lung
In short: as §1

[22] = tested on: HCC95; conditions: Homo sapiens; HCC95, lung
In short: as §1

[23] = tested on: HCC1937; conditions: Homo sapiens; HCC1937, breast
In short: as §1

[24] = tested on: OE19; conditions: Homo sapiens; OE19, esophagus
In short: as §1

[25] = tested on: SJSA1; conditions: Homo sapiens, SJSA-1; SJSA1, bone
In short: as §1

[26] = tested on: T174; conditions: T174, breast
In short: as §1

[27] = tested on: HEC1B; conditions: Homo sapiens, HEC-1B, uterus
In short: as §1

[28] = tested on: NCIH1573; conditions: Homo sapiens, NCI-H1573; NCIH1573, lung
In short: as §1

[29] = tested on: SKES1; conditions: Homo sapiens, SK-ES1; SKES1, bone
In short: as §1

[30] = tested on: SNGM; conditions: uterus
In short: as §1

[31] = tested on: TE5; conditions: Homo sapiens, TE-5; TE5, esophagus
In short: as §1

[32] = tested on: BT474; conditions: Homo sapiens, BT-474; BT474, breast
In short: as §1

[33] = tested on: A2058; conditions: Homo sapiens; A2058, skin
In short: as §1

[34] = tested on: NCIH1915; conditions: NCI-H1915; NCIH1915, lung
In short: as §1

[35] = tested on: HS578T; conditions: Homo sapiens, Hs-578T, breast
In short: as §1

[36] = tested on: HCC1438; conditions: HCC1438, lung
In short: as §1

[37] = tested on: RERFLCAI; conditions: lung
In short: as §1

[38] = tested on: PECAPJ15; conditions: PECAPJ15, head and neck
In short: as §1

With COc1ncnc(C2CC2)c1-c1ncc2cnn(Cc3ccc(-c4nc(C(F)(F)F)cn4C)cc3)c2n1 [Formula II, 6-(4-cyclopropyl-6-methoxypyrimidin-5-yl)-1-(4-(1-methyl-4-(trifluoromethyl)-1H-imidazol-2-yl)benzyl)-1H-pyrazolo[3,4-d]pyrimidine] the IC50 [1] was over 300 nM, the IC50 [2] was over 300 nM and the IC50 [3] was over 300 nM. The IC50 [4] was 16.6 nM, the IC50 [5] was over 300 nM and the IC50 [6] was over 300 nM. For the same compound, the IC50 [7] was over 300 nM, the “activity as single agents” value [7] was “little to no activity” and the IC50 [8] was over 300 nM. It also gave an IC50 [9] of 85.7 nM, an IC50 [10] of over 300 nM and an IC50 [11] of over 300 nM. The IC50 [12] was over 300 nM, the IC50 [13] was over 300 nM and the IC50 [14] was over 300 nM. It also gave an IC50 [15] of 220 nM, an IC50 [16] of over 300 nM and an IC50 [17] of over 300 nM. It also gave an IC50 [18] of 27.8 nM, an IC50 [19] of over 300 nM and an IC50 [20] of over 300 nM. The IC50 [21] was over 300 nM, the IC50 [22] was over 300 nM and the IC50 [23] was over 300 nM. The IC50 [24] was over 300 nM, the IC50 [25] was over 300 nM and the IC50 [26] was over 300 nM. It also gave an IC50 [27] of over 300 nM, an IC50 [28] of 227 nM and an IC50 [29] of over 300 nM. The IC50 [30] was over 300 nM, the IC50 [31] was over 300 nM and the IC50 [32] was over 300 nM. The IC50 [33] was over 300 nM, the IC50 [34] was 52.2 nM and the IC50 [35] was over 300 nM. The IC50 [36] was over 300 nM, the IC50 [37] was over 300 nM and the IC50 [38] was over 300 nM.

Compound NC(=O)c1cccc2cn(-c3ccc([C@@H]4CCCNC4)cc3)nc12 [Niraparib, niraparib, reference compound] has an IC50 [1] of 39 nM, an IC50 [2] of over 300 nM and an IC50 [3] of over 300 nM. For the same compound, the IC50 [4] was 25.3 nM, the IC50 [5] was over 300 nM and the IC50 [6] was over 300 nM. For the same compound, the IC50 [7] was over 300 nM, the “activity as single agents” value [7] was “little to no activity” and the IC50 [8] was over 300 nM. The IC50 [9] was 32.4 nM, the IC50 ([10]; KP3, pancreas, read-out: IC50) was over 300 nM and the IC50 [11] was over 300 nM. It also gave an IC50 [12] of over 300 nM, an IC50 [13] of over 300 nM and an IC50 [14] of over 300 nM. It also gave an IC50 [15] of 106 nM, an IC50 [16] of 36.9 nM and an IC50 [17] of 97.3 nM. It also gave an IC50 [18] of 241 nM, an IC50 [19] of over 300 nM and an IC50 [20] of over 300 nM. It also gave an IC50 [21] of over 300 nM, an IC50 [22] of over 300 nM and an IC50 [23] of 244 nM. It also gave an IC50 [24] of over 300 nM, an IC50 [25] of over 300 nM and an IC50 [26] of over 300 nM. The IC50 [27] was over 300 nM, the IC50 [28] was 15.2 nM and the IC50 [29] was 23.6 nM. It also gave an IC50 [30] of over 300 nM, an IC50 [31] of over 300 nM and an IC50 [32] of over 300 nM. It also gave an IC50 [33] of 58.4 nM, an IC50 [34] of 66.2 nM and an IC50 [35] of over 300 nM. It also gave an IC50 [36] of 42.5 nM, an IC50 [37] of over 300 nM and an IC50 [38] of over 300 nM.
